The values that follow come from publication PMC12299463, “Cladolosides of Groups S and T: Triterpene Glycosides from the Sea Cucumber Cladolabes schmeltzii with Unique Sulfation; Human Breast Cancer Cytotoxicity and QSAR” (Marine Drugs, 2025).

Values joined by “and” are separate entries in the source; they are usually repeats but may differ in a detail not shown here. Equal values may be shown once. Where a name gives a salt, the structure may show the parent alone. Read-outs that look alike come from different tables or passages of the source.

The subject of data set [1] is MDA-MB-231 triple-negative breast cancer cells. The experiment in a line: cells. The conditions noted are these: for Selectivity Index (SI), MDA-MB-231: ratio of IC50 for healthy (MCF-10A) and MDA-MB-231 cells. Type of data set: cell-based, human.
The test system of the next data set is human erythrocytes. The experiment in a line: Hemolytic activity against human erythrocytes. Type of data set: cell-based. The conditions noted are these: for ED50, Erythrocytes (hemolytic activity): 1 h at 37 °C. How it is done:
A total of 450 g of human blood (B(III) Rh+) was used to obtain erythrocytes by centrifuging three times for 5 min with phosphate-buffered saline (PBS) (pH 7.4) at 4 °C on a centrifuge LABOFUGE 400R (Heraeus, Hanau, Germany). Ice-cold PBS (pH 7.4) was used for resuspension of erythrocyte residue to a final optical density of 1.5 at 700 nm. Then, 20 µL of tested compound solutions or control (cucumarioside A0-1 [15]) were added to 180 µL of erythrocyte suspension in V-bottom 96-well plates and incubated for 1 h at 37 °C. After centrifugation (900 g, 10 min, laboratory centrifuge LMC-3000 (Biosan, Riga, Latvia)), 100 µL of supernatant was transferred into new flat plates. The values of erythrocyte lysis were measured on microplate photometer Multiskan FC (Thermo Fisher Scientific, Waltham, MA, USA) at λ = 570 nm as hemoglobin concentration in supernatant. […] All the experiments were carried out in triple repetitions, p < 0.05.

In data set [2] the test system is T-47D human breast cancer cells. Kind of data set: cells. The conditions noted are these: for Selectivity Index (SI), T-47D: ratio of IC50 for healthy (MCF-10A) and T-47D cells. Type of data set: cell-based.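 As to all read-outs here: cell viability read as absorbance of formazan dye at 570 nm, each experiment run in triplicate.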
Data set [3] relates to MCF-10A non-tumor mammary epithelial cell line. Kind of data set: in vitro. Type of data set: cell-based, human.
The subject of data set [4] is MCF-7 human breast cancer cells. The experiment in a line: cells. Type of data set: cell-based. The settings on record: for Selectivity Index (SI), MCF-7: ratio of IC50 for healthy (MCF-10A) and MCF-7 cells.
The mark [5] stands for this setting: MTT assay, MDA-MB-231, read-out: Cytotoxicity, IC50, MDA-MB-231.
Setting [6] is: MTT assay, T-47D, read-out: Cytotoxicity, IC50, T-47D.
Where [7] appears, read: MTT assay, MCF-10A, read-out: Cytotoxicity, IC50, MCF-10A.
The mark [8] stands for this setting: MTT assay, MCF-7, read-out: Cytotoxicity, IC50, MCF-7.

As usually defined, the IC50 is the concentration at which inhibition is half-maximal.
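For Cytotoxicity, IC50, MCF-7 in this document: IC50 values, including those behind the selectivity ratio, derive from formazan absorbance at 570 nm, tested in triplicate.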
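For Selectivity Index (SI), MCF-7 in this document: IC50 values, including those behind the selectivity ratio, derive from formazan absorbance at 570 nm, tested in triplicate.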

As to `C=C(C)CCC[C@]1(C)OC(=O)C23CC=C4[C@@H](CC[C@H]5C(C)(C)[C@@H](O[C@@H]6OC[C@@H](O[C@@H]7O[C@H](CO)[C@@H](O)[C@H](O[C@@H]8O[C@H](CO)[C@@H](O)[C@H](OC)[C@H]8O)[C@H]7O)[C@H](O)[C@H]6O[C@@H]6O[C@H](C)[C@@H](O[C@@H]7OC[C@@H](O)[C@H](O[C@@H]8O[C@H](CO)[C@@H](O)[C@H](O)[C@H]8O)[C@H]7O)[C@H](O)[C@H]6O)CC[C@]45C)[C@]2(C)CC(=O)[C@@H]31` (stereo partly shown) [Cladoloside P2 (41), Cladoloside P2], the IC50 is 6.92 ± 0.44 µM in data set [1] (setting [5]), 10.6 ± 0.61 µM in data set [2] (setting [6]), 11.1 ± 0.74 µM in data set [3] (setting [7]) and 16.3 ± 1.03 µM in data set [4] (setting [8]). Also, in data set [1], the “Selectivity Index (SI), MDA-MB-231” value was determined as 1.60. Moreover, the “Hemolytic (membranolytic) activity, in words” value with human erythrocytes was “strong hemolytics”. Moreover, the “ED50, Erythrocytes (hemolytic activity)” value in the data set with human erythrocytes turned out to be 0.17 ± 0.02 µM. The “Selectivity Index (SI), T-47D” value in data set [2] is 1.05. Besides, in data set [4], the “Selectivity Index (SI), MCF-7” value turned out to be 0.68.
With `C=C(C)CC[C@@H](OC(C)=O)[C@]1(C)OC(=O)C23CC=C4[C@@H](CC[C@H]5C(C)(C)[C@@H](O[C@@H]6OC[C@@H](O[C@@H]7O[C@H](CO)[C@@H](O)[C@H](O)[C@H]7O)[C@H](O)[C@H]6O[C@@H]6O[C@H](C)[C@@H](O[C@@H]7OC[C@@H](O)[C@H](O[C@@H]8O[C@H](CO)[C@@H](O)[C@H](OC)[C@H]8O)[C@H]7O)[C@H](O)[C@H]6O)CC[C@]45C)[C@]2(C)C[C@H](OC(C)=O)[C@@H]31` (stereo partly shown) [Cladoloside B2 (12), cladoloside B2], the IC50 came out at 3.92 ± 0.35 µM in data set [1] (setting [5]), 12.5 ± 0.96 µM in data set [2] (setting [6]), 12.2 ± 1.2 µM in data set [3] (setting [7]) and 14.5 ± 0.48 µM in data set [4] (setting [8]). The “Selectivity Index (SI), MDA-MB-231” value in data set [1] came to 3.12. Besides, the “Hemolytic (membranolytic) activity, in words” value in the data set on human erythrocytes is reported as “high activity”. In addition, the figures for the “ED50, Erythrocytes (hemolytic activity)” value with human erythrocytes (listed as B2 (12)) and with human erythrocytes (listed as cladoloside B2 (12)) were 0.31 ± 0.02 µM and 0.31 µM, respectively. Besides, the “Selectivity Index (SI), T-47D” value in data set [2] is on record as 0.98. In data set [4], the “Selectivity Index (SI), MCF-7” value is reported as 0.84.
On to `CO[C@@H]1[C@@H](O)[C@H](O[C@@H]2[C@@H](O)[C@H](O[C@H]3[C@H](O)[C@@H](O)[C@H](O[C@H]4[C@H](O[C@H]5CC[C@]6(C)C7=CCC89C(=O)O[C@@](C)([C@@H](CCC(C)C)OC(C)=O)[C@H]8[C@@H](OC(C)=O)C[C@@]9(C)[C@@H]7CC[C@H]6C5(C)C)OC[C@@H](O[C@@H]5O[C@H](CO)[C@@H](O)[C@H](O)[C@H]5O)[C@@H]4O)O[C@@H]3C)OC[C@H]2O)O[C@H](CO)[C@H]1O` (stereo partly shown) [Cladoloside B1 (11), cladoloside B1], for which the IC50 is 10.1 ± 1 µM in data set [1] (setting [5]), 13 ± 1.07 µM in data set [2] (setting [6]), > 20 µM in data set [3] (setting [7]) and > 20 µM in data set [4] (setting [8]). The “Selectivity Index (SI), MDA-MB-231” value in data set [1] was >1.98. Also, the “ED50, Erythrocytes (hemolytic activity)” value worked out at 0.55 ± 0.04 µM in the data set with human erythrocytes (listed as B1 (11)) and 0.55 µM in the data set on human erythrocytes (listed as cladoloside B1 (11)). Further, the “Selectivity Index (SI), T-47D” value in data set [2] was >1.54.
As for `CO[C@@H]1[C@@H](O)[C@H](O[C@@H]2[C@@H](O)[C@H](O[C@H]3[C@H](O)[C@@H](O)[C@H](O[C@H]4[C@H](O[C@H]5CC[C@]6(C)C7=CCC89C(=O)O[C@@](C)([C@@H](CCC(C)C)OC(C)=O)[C@H]8[C@@H](OC(C)=O)C[C@@]9(C)[C@@H]7CC[C@H]6C5(C)C)OC[C@@H](O[C@@H]5O[C@H](CO)[C@@H](O)[C@H](O)[C@H]5O)[C@@H]4O)O[C@@H]3C)OC[C@H]2O)O[C@H](COS(=O)(=O)[O-])[C@H]1O.[Na+]` (stereo partly shown) [Cladoloside I1 (28), cladoloside I1], the IC50 stood at 3.02 ± 0.28 µM in data set [1] (setting [5]), 9.91 ± 0.68 µM in data set [2] (setting [6]), 13.4 ± 0.92 µM in data set [3] (setting [7]) and 11.2 ± 1.02 µM in data set [4] (setting [8]). Moreover, the “Selectivity Index (SI), MDA-MB-231” value in data set [1] came to 4.45. Also, the “ED50, Erythrocytes (hemolytic activity)” value in the data set on human erythrocytes (listed as I1 (28)) is recorded as 1.72 ± 0.10 µM; in the data set with human erythrocytes (listed as cladoloside I1 (28)), 1.72 µM. Moreover, the “Selectivity Index (SI), T-47D” value in data set [2] is listed as 1.36. Also, the “Selectivity Index (SI), MCF-7” value in data set [4] was 1.20.
Consider `C=C(C)CC[C@@H](O)[C@]1(C)OC(=O)C23CC=C4[C@@H](CC[C@H]5C(C)(C)[C@@H](O[C@@H]6OC[C@@H](O[C@@H]7O[C@H](CO)[C@@H](O)[C@H](O[C@@H]8O[C@H](CO)[C@@H](O)[C@H](OC)[C@H]8O)[C@H]7O)[C@H](O)[C@H]6O[C@@H]6O[C@H](C)[C@@H](O[C@@H]7OC[C@@H](O)[C@H](O[C@@H]8O[C@H](COS(=O)(=O)[O-])[C@@H](O)[C@H](OC)[C@H]8O)[C@H]7O)[C@H](O)[C@H]6O)CC[C@]45C)[C@]2(C)C[C@H](OC(C)=O)[C@@H]31.[Na+]` (stereo partly shown) [Cladoloside K2 (32), cladoloside K2], for which the IC50 was 6.81 ± 0.73 µM in data set [1] (setting [5]), 14.1 ± 0.91 µM in data set [2] (setting [6]), 14.5 ± 1.07 µM in data set [3] (setting [7]) and > 20 µM in data set [4] (setting [8]). Moreover, the “ED50, Erythrocytes (hemolytic activity)” value in the data set on human erythrocytes (listed as K2 (32)) is on record as 4.63 ± 0.41 µM; in the data set on human erythrocytes (listed as cladoloside K2 (32)), 4.63 µM. Besides, the “Selectivity Index (SI), T-47D” value in data set [2] came to 1.03.
As to `CO[C@@H]1[C@@H](O)[C@H](O[C@@H]2[C@@H](O)[C@H](O[C@@H]3CO[C@@H](O[C@H]4CC[C@]5(C)C6=CCC78C(=O)O[C@@](C)([C@@H](CCC(C)C)OC(C)=O)[C@H]7[C@@H](OC(C)=O)C[C@@]8(C)[C@@H]6CC[C@H]5C4(C)C)[C@H](O[C@@H]4O[C@H](C)[C@@H](O[C@@H]5OC[C@@H](O)[C@H](O[C@@H]6O[C@H](CO)[C@@H](O)[C@H](OC)[C@H]6O)[C@H]5O)[C@H](O)[C@H]4O)[C@H]3O)O[C@H](CO)[C@H]2O)O[C@H](CO)[C@H]1O` (stereo partly shown) [Cladoloside C1 (14), cladoloside C1], the IC50 was 15.3 ± 0.71 µM in data set [1] (setting [5]), > 20 µM in data set [2] (setting [6]), > 20 µM in data set [3] (setting [7]) and > 20 µM in data set [4] (setting [8]). The entries for the “ED50, Erythrocytes (hemolytic activity)” value in the data set with human erythrocytes (listed as C1 (14)) and in the data set with human erythrocytes (listed as cladoloside C1 (14)) were 0.15 ± 0.02 µM and 0.15 µM, respectively.
In the case of `C=C(C)CC[C@@H](OC(C)=O)[C@]1(C)OC(=O)C23CC=C4[C@@H](CC[C@H]5C(C)(C)[C@@H](O[C@@H]6OC[C@@H](O[C@@H]7O[C@H](CO)[C@@H](O)[C@H](O[C@@H]8O[C@H](CO)[C@@H](O)[C@H](OC)[C@H]8O)[C@H]7O)[C@H](O)[C@H]6O[C@@H]6O[C@H](C)[C@@H](O[C@@H]7OC[C@@H](O)[C@H](O[C@@H]8O[C@H](CO)[C@@H](O)[C@H](OS(=O)(=O)O)[C@H]8O)[C@H]7O)[C@H](O)[C@H]6O)CC[C@]45C)[C@]2(C)C[C@H](OC(C)=O)[C@@H]31` (stereo partly drawn) [Cladoloside T (3), 3β-O-{3-O-sodium sulfate-β-D-glucopyranosyl-(1→3)-β-D-xylopyranosyl-(1→4)-β-D-quinovopyranosyl-(1→2)-[3-O-methyl-β-D-glucopyranosyl-(1→3)-β-D-glucopyranosyl-(1→4)]-β-D-xylopyranosyl}-16S,22R-diacetoxyholosta-9,25-diene], the IC50 amounted to 3.41 ± 0.33 µM in data set [1], 8.21 ± 0.72 µM in data set [2], 8.23 ± 0.52 µM in data set [3] and 8.99 ± 0.61 µM in data set [4]. In the data set on human erythrocytes, the “ED50, Erythrocytes (hemolytic activity)” value is 0.39 µM and 0.39 ± 0.03 µM.
For the compound `CO[C@@H]1[C@@H](O)[C@H](O[C@@H]2[C@@H](O)[C@H](O[C@H]3[C@H](O)[C@@H](O)[C@H](O[C@H]4[C@H](O[C@H]5CC[C@]6(C)C7=CCC89C(=O)O[C@@](C)([C@@H](CCC(C)C)OC(C)=O)[C@H]8[C@@H](OC(C)=O)C[C@@]9(C)[C@@H]7CC[C@H]6C5(C)C)OC[C@@H](O)[C@@H]4O)O[C@@H]3C)OC[C@H]2O)O[C@H](CO)[C@H]1O` (stereo partly shown) [A1 (5)], the IC50 in data set [1], in data set [2], in data set [3] and in data set [4] was > 20 µM each time. Moreover, in the data set with human erythrocytes, the “ED50, Erythrocytes (hemolytic activity)” value came to 6.17 ± 0.51 µM.
Turning to cucumarioside A0-1 [reference compound], the half-maximal inhibitory concentration (IC50) in data set [1] (setting [5]) worked out at 3.53 ± 0.54 µM; in data set [2] (setting [6]), 8.46 ± 0.53 µM; in data set [3] (setting [7]), 7.51 ± 0.63 µM; in data set [4] (setting [8]) it was 11.3 ± 1 µM. Besides, the “Selectivity Index (SI), MDA-MB-231” value in data set [1] was 2.13. Besides, the “ED50, Erythrocytes (hemolytic activity)” value in the data set on human erythrocytes was 1.63 ± 0.21 µM. For the same compound, the “Selectivity Index (SI), T-47D” value in data set [2] is 0.89. Besides, in data set [4], the “Selectivity Index (SI), MCF-7” value amounted to 0.66.
